Assay results: paper PMC12523804, “Evaluation of molecular mechanisms of (Z)-3-(pentadec-10′-enyl)-catechol (litreol) and synthetic derivatives as inhibitors of human leukotriene biosynthesis” (Redox Biology, 2025)

Test system: NF-κB
Test: Western blot of NF-κB
Format: cell-based
Conditions: LPS stimulation
Protocol: Human polymorphonuclear leukocytes (PMNLs; 50 × 10^6), isolated from whole blood, were resuspended in 1 mL of cold PGC buffer. Briefly, neutrophils were pre-incubated for 15 min at 37 °C with test compounds (1 μM). […] The samples were subsequent centrifuged (1200g, 10 min) and the pellets were resuspended in 100 μL od SDS-PAGE loading buffer (2x) (Tris 1 M pH 8, EDTA 0.2 M, 10 % SDS, 10 % mercaptoethanol). Correct protein loading on the gels and transfer of proteins to the nitrocellulose membrane were confirmed by Ponceau staining. Membranes with transferred proteins were incubated overnight with primary antibodies in 1x Tris Buffered Saline (TBS) with 1 % Casein (Biorad- #1610782). Membranes were then washed and incubated with horseradish peroxidase-conjugated secondary antibodies for 1 h at room temperature. Blots were developed using enhanced chemiluminescence detection reagents ECL (Immobilion ECL Ultra Western HRP Substrate - Cat# WBULS0500 Millipore) and acquired using ChemiDoc Imaging System (BioRad). Antibody recognizing phosphorylated p38-MAPkinase, pERK, ERK, NfKB were from Cell Signalling Technology (Boston, MA) and used at 1:1000 dilution. Secondary antibodies were purchased from Biorad (170–6515; 170–6516) and used at 1:2000 diluition.

In the case of `CCCC/C=C\CCCCCCCCCc1cccc(O)c1O` [CI, (Z)-3-(pentadec-10′-enyl)-catechol], the “NF-κB expression (Western blot)” value is reported as “most pronounced effect”.
